This note sets out measurements from patent US7037929B1, “2-amino-thiazole derivatives, process for their preparation, and their use as antitumor agents” (Pharmacia & Upjohn S.p.A., priority 1998, dated 2006).

For the assay, the target named is cdk2/cyclin A complex (Homo sapiens, UniProt P24941). Nature of the assay: inhibition assay of cdk2/Cyclin A activity (MultiScreen-PH phosphocellulose filter plate, 33P-ATP, histone H1). The class given is biochemical. Particulars: ATP and histone H1 substrate concentrations varied; random bireactant system equation; read-out: inhibiting activity towards the cdk2/cyclin A complex (Ki). The protocol:
The inhibiting activity of putative cdk/cyclin inhibitors and the potency of selected compounds was determined through a method of assay based on the use of the MultiScreen-PH 96 well plate (Millipore), in which a phosphocellulose filter paper was placed at each well bottom allowing binding of positive charged substrate after a washing/filtration step.
When a radioactivity labelled phosphate moiety was transferred by the ser/threo kinase to the filter-bound histone, light emitted was measured in a scintillation counter. The inhibition assay of cdk2/Cyclin A activity was performed according to the following protocol:
Kinase reaction: 1.5 μM histone H1 substrate, 25 μM ATP (0. 5 μCi P^33γ-ATP), 30 ng Cyclin A/cdk2 complex, […] in a final volume of 100 μl buffer (TRIS HCl 10 mM pH 7.5, MgCl2 10 mM, 7.5 mM DTT) were added to each well of a 96 U bottom well plate. After 10 min at 37° C. incubation, reaction was stopped by 20 μl EDTA 120 mM.
Capture: 100 μl were transferred from each well to MultiScreen plate, to allow substrate binding to phosphocellulose filter. […]
Detection: filters were allowed to dry at 37° C., then 100 μl/well scintillant were added and ^33P labelled histone H1 was detected by radioactivity counting in the Top-Count instrument.
Results: data were analysed and expressed as % inhibition referred to total activity of enzyme (=100%). […]

Each structure is given as a SMILES string.

Consider `CC(C)c1cnc(NC(=O)Cc2ccc(N(C)C)cc2)s1` [2-[4-(dimethylamino)phenyl]-N-(5-isopropyl-1,3-thiazol-2-yl)acetamide], for which the Ki was found to be 100 nM.
